Values quoted from earlier work in US20220160890A1, “SURVIVAL-TARGETING CHIMERIC (SURTAC) MOLECULES” (Locki Therapeutics Limited, priority 2019, published 2022).

Key:
[1] = target: T1, p53 (Homo sapiens, UniProt P04637)
T1 construct: various tumor cells lines expressing wild-type p53

[2] = target: T1, p53; remark: listed apart in the source
[3] = target: p53-HDM-2 interaction (Homo sapiens, UniProt P04637); settings: in vitro and in vivo
[4] = test system: tumor cells lines expressing wild-type p53; settings: tumor cell lines expressing wild-type p53

T1 sequence (P04637 whole entry): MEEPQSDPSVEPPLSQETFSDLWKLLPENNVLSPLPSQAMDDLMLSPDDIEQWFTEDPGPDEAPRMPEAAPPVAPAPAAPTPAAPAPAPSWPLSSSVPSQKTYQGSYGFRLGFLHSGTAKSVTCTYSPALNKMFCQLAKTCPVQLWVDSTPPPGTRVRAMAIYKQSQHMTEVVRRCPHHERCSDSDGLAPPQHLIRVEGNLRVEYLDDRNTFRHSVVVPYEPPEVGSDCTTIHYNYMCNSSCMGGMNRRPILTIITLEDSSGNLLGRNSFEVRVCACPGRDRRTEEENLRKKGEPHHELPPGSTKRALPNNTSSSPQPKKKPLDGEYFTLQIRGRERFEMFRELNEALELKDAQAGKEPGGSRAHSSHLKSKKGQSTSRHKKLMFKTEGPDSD
p53-HDM-2 interaction, sequence (P04637 whole entry): as above

Compound: OCc1ccc(-c2ccc(-c3ccc(CO)s3)o2)s1 [RITA, 2,5-bis(5-hydroxymethyl-2-thienyl)furan]
- binding to p53 [1]: binds to p53
- accumulation of p53 in tumor cells [2]: induces its accumulation in tumor cells
- p53-HDM-2 interaction [3]: prevents p53-HDM-2 interaction
- apoptosis [4]: massive apoptosis
- expression of p53 target genes [4]: induced expression of p53 target genes
